Source: patent US5756813A, “Hindered aromatic ester compounds useful as anti-viral agents” (Uniroyal Chemical Ltd/Uniroyal Chemical Ltee, priority 1996, dated 1998)
Where “and” joins values, the source holds several entries; their conditions need not be identical. Equal values may be shown once. Read-outs that look alike come from different tables or passages of the source.

Key:
[1] = tested on: T4 lymphocytes (CEM cell line); experiment: Toxicity to uninfected T4 lymphocytes (CEM cell line): 50% inhibition of cell growth (second blank); assay type: cell-based, human; details: uninfected CEM cells, no HIV-1, cytotoxicity, replicate tests, read-out: IC50 (concentration that results in 50% inhibition of cell growth)
Description: (§1) 1) The test compound was dissolved in dimethyl sulfoxide and diluted 1:100 in cell culture medium before serial half-log10 dilutions were prepared. T4 lymphocytes (CEM cell line) were then added to the cell culture medium, and, finally, after a brief interval, HIV-1 was added, resulting in a 1:200 final dilution of the test compound. Uninfected cells in the cell culture medium containing the test compound (i.e., minus HIV-1) were used as a toxicity control, and infected cells in the cell culture medium without the test compound and uninfected cells in the cell culture medium without the test compound, were used as basic controls.
(§2) 2) The cultures were incubated at 37° C. in a 5% carbon dioxide atmosphere for 6 days.
(§3) 3) The tetrazolium salt, XTT, was added to all wells, and the cultures were then incubated to allow formazan color development by viable cells.
(§4) 4) Individual wells were analyzed spectrophotometrically to quantitate formazan production, and were also viewed microscopically for detection of viable cells and confirmation of protective activity.
(§5) 5) Virus-infected cells exposed to the test compound were compared with noninfected cells exposed to the test compound, and with other appropriate controls (infected cells not exposed to the test compound and noninfected cells not exposed to the test compound, wells containing only the test compound in the cell culture medium, and so on) on the same plate. These are the first and second blanks described below.
In the second blank, the T4 lymphocytes in cell culture medium and the test compound (with no HIV-1) were incubated together to measure the toxicity of the drug to the cellline. The viability of the cells was measured as a function of concentration of the compound, after incubation for seven days. The concentration of the test compound that results in 50% inhibition of cell growth is defined as its IC50.
(§6) The compounds were tested to determine their reduction of HIV cytopathic effect on the human cell line CEM. Tests were done by innoculating these cell lines in-well (IW), i.e., the test compound and CEM cells were mixed on a test plate and the virus was added a short time later.

HIV-1 = experiment: NCI in vitro anti-HIV screen: reduction of HIV-1 cytopathic effect in T4 lymphocytes (CEM cell line), XTT/formazan readout; assay type: cell-based, HIV-1 (in human cell line CEM); details: replicate tests; for TI50 (therapeutic index, IC50/EC50): calculated as IC50/EC50, CEM cells
Description: Representative compounds of this invention were tested for anti-viral activity by subjecting them to standard National Cancer Institute ("NCI") in vitro screening procedures. Two blanks were run with each test. The NCI test for agents active against HIV is designed to detect agents acting at any stage of the virus reproduction cycle.
In the test assay, small amounts of HIV are added to T4 lymphocyte cells. The assay measures the amount of T4 lymphocytes "killed" by HIV cytolysis. Since a complete cycle of viral reproduction is necessary to "kill" the T4 lymphocyte cells, agents that interfere with viral reproduction will protect the cells from cytolysis.
The NCI system is automated in several features to accomodate large numbers of candidate agents and is generally designed to detect anti-HIV activity. […] All tests are compared with at least one positive (AZT-treated) control done at the same time under identical conditions.
as §1, §2, §3, §4, §5
6) Data were reviewed in comparison with other tests done at the same time and a determination concerning activity was made. In the first blank, HIV and T4 lymphocytes in cell culture medium, were incubated together to measure the infectivity of the virus. The viability of the cells was measured after holding for six or seven days. In an "effective" test, most cells were infected before the holding period was complete.
Finally, the protective effects of the test compounds were measured. Each cell culture and test compound were incubated with the virus and the viability of the cells was measured as a function of compound concentration after incubation for six or seven days. The concentration of the test compound that results in 50% "control," i.e., a 50% reduction of the viral cytopathic effect, is defined as its EC50. The therapeutic index TI50 was calculated as IC50 /EC50.
Concentrations of test compounds required for between 20 and 50% reduction of the viral cytopathic effect can also be determined. Such compounds are classified as moderately active.
as §6

[2] = HIV-1 infected CEM cells, in-well (IW) inoculation, six or seven days, read-out: EC50 (concentration that results in 50% reduction of the viral cytopathic effect)
[3] = Human immunodeficiency virus 1, CCRF-CEM, 168 h, HIV-1 infected CEM cells, in-well (IW) inoculation, six or seven days, read-out: EC50 (concentration that results in 50% reduction of the viral cytopathic effect)

In the case of CC1(OC(=O)c2cc(NC(=O)c3ccccc3)ccc2Cl)CCCC1 [Compound 1], the IC50 ([1]; Homo sapiens, CCRF-CEM) is reported as 41.8 µM, the IC50 [1] is reported as 49.5 µM and 32.7 µM and 32 µM and the EC50 (HIV-1; [2]) is reported as 11.5 µM and 15.2 µM and 17.6 µM. The EC50 (HIV-1; [3]) was 17.3 µM and the “TI50 (therapeutic index, IC50/EC50)” value (HIV-1) was 2 and 4.
In the case of Cc1ccccc1C(=S)Nc1ccc(Cl)c(C(=O)OC2CCCCC2C)c1 (stereo not drawn) [Compound 11], the IC50 ([1]; Homo sapiens, CCRF-CEM) is reported as greater than 9.4 µM, the EC50 (HIV-1; [2]) is reported as 5.4 µM and 4.4 µM and the EC50 (HIV-1; [3]) is reported as 5 µM. For the same molecule, the “TI50 (therapeutic index, IC50/EC50)” value (HIV-1) was greater than 2.
With CC1CCCC1OC(=O)c1cc(NC(=S)c2ccccc2)ccc1Cl (stereo not drawn) [Compound 3] the IC50 ([1]; Homo sapiens, CCRF-CEM) was 14.1 µM, the IC50 [1] was 12.2 µM and 13.8 µM and the EC50 (HIV-1; [2]) was 0.0867 µM and 0.0783 µM and 0.101 µM. For the same molecule, the EC50 (HIV-1; [3]) was 0.0967 µM and the “TI50 (therapeutic index, IC50/EC50)” value (HIV-1) was 146 and 141 and 180 and 136.
With Cc1occc1C(=O)Nc1ccc(Cl)c(C(=O)OC(C)C2CCCC2)c1 (stereo not drawn) [Compound 14] the IC50 ([1]; Homo sapiens, CCRF-CEM) was 7.7 µM, the IC50 [1] was greater than 14 µM and the EC50 (HIV-1; [2]) was 0.84 µM and 1.1 µM and 0.77 µM and 2.3 µM and 1.7 µM. The “TI50 (therapeutic index, IC50/EC50)” value (HIV-1) was 9 and > 13 and > 18 and > 6 and > 8.
For CC(OC(=O)c1cc(NC(=O)c2cccn2C)ccc1Cl)C1CC1 (stereo not drawn) [Compound 17], the IC50 ([1]; Homo sapiens, CCRF-CEM) was greater than 54 µM, the EC50 (HIV-1; [2]) was 5.3 µM and 9.7 µM and 5 µM and 4.1 µM and the “TI50 (therapeutic index, IC50/EC50)” value (HIV-1) was > 10 and > 6 and > 11 and > 13.
With CC1CCCCC1OC(=O)c1cc(NC(=S)c2ccccc2)ccc1Cl (stereo not drawn) [Compound 5] the IC50 ([1]; Homo sapiens, CCRF-CEM) was 16 µM, the IC50 [1] was 14.1 µM and 13.6 µM and 13.4 µM and the EC50 (HIV-1; [2]) was 0.175 µM and 0.199 µM and 0.0791 µM and 0.126 µM. The “TI50 (therapeutic index, IC50/EC50)” value (HIV-1) was 92 and 71 and 172 and 107.
For CC(OC(=O)c1cc(NC(=S)c2ccccc2)ccc1Cl)C1CCCC1 (stereo not drawn) [Compound 12], the IC50 ([1]; Homo sapiens, CCRF-CEM) was greater than 14 µM, the EC50 (HIV-1; [2]) was 0.23 µM and 0.27 µM and the EC50 (HIV-1; [3]) was 0.28 µM. For the same molecule, the “TI50 (therapeutic index, IC50/EC50)” value (HIV-1) was > 48 and > 60 and > 50.
For Cc1occc1C(=O)Nc1ccc(Cl)c(C(=O)OC(C)C2CC2)c1 (stereo not drawn) [Compound 15], the IC50 ([1]; Homo sapiens, CCRF-CEM) was greater than 21 µM, the EC50 (HIV-1; [2]) was 1.4 µM and 2.5 µM and 1.1 µM and the “TI50 (therapeutic index, IC50/EC50)” value (HIV-1) was > 14 and > 8 and > 19.
In the case of Cc1ccccc1C(=O)Nc1ccc(Cl)c(C(=O)OC2CCCCC2C)c1 (stereo not drawn) [Compound 10], the IC50 ([1]; Homo sapiens, CCRF-CEM) is reported as 19.7 µM, the IC50 [1] is reported as 16.9 µM and 17.1 µM and 16.6 µM and the EC50 (HIV-1; [2]) is reported as 2.39 µM and 1.75 µM and 1.3 µM and 1.13 µM. For the same molecule, the “TI50 (therapeutic index, IC50/EC50)” value (HIV-1) was 8 and 10 and 13 and 15.
CC1CCC(OC(=O)c2cc(NC(=S)c3ccccc3)ccc2Cl)C1 (stereo not drawn) [Compound 8] was tested, and the IC50 ([1]; Homo sapiens, CCRF-CEM) was 14.6 µM, the IC50 [1] was 13.5 µM and 14.8 µM and 13.1 µM and the EC50 (HIV-1; [2]) was 0.195 µM and 0.184 µM and 0.181 µM. The EC50 (HIV-1; [3]) was 0.213 µM and the “TI50 (therapeutic index, IC50/EC50)” value (HIV-1) was 68 and 69 and 80 and 72.
In the case of CC1CCCCC1OC(=O)c1cc(NC(=O)c2ccccc2)ccc1Cl (stereo not drawn) [Compound 9, 2-methylcyclohexyl 2-chloro-5-(benzoylamino)benzoate], the IC50 ([1]; Homo sapiens, CCRF-CEM) is reported as 14.2 µM, the IC50 [1] is reported as 12.6 µM and 15.3 µM and 14.5 µM and the EC50 (HIV-1; Human immunodeficiency virus 1, CCRF-CEM, 168 h, read-out: EC50 (concentration that results in 50% reduction of the viral cytopathic effect), HIV-1 infected CEM cells, in-well (IW) inoculation, six or seven days) is reported as 4.65 µM. For the same molecule, the “TI50 (therapeutic index, IC50/EC50)” value (HIV-1) was 31 and 28 and 65 and the EC50 (HIV-1; read-out: EC50 (concentration that results in 50% reduction of the viral cytopathic effect), HIV-1 infected CEM cells, in-well (IW) inoculation, six or seven days) was 4.47 µM and 2.37 µM.
In the case of CC1=C(C(=O)Nc2ccc(Cl)c(C(=O)OC3CCCCC3C)c2)SCCO1 (stereo not drawn) [Compound 6], the IC50 ([1]; Homo sapiens, CCRF-CEM) is reported as greater than 24 µM, the IC50 [1] is reported as 14 µM and 20 µM and the “TI50 (therapeutic index, IC50/EC50)” value (HIV-1) is reported as > 1 and > 18 and 19 and 18.
For CC1CCCC(C)C1OC(=O)c1cc(NC(=S)c2ccccc2)ccc1Cl (stereo not drawn) [Compound 4], the IC50 ([1]; Homo sapiens, CCRF-CEM) was greater than 13 µM, the EC50 (HIV-1; [2]) was 0.94 µM and 2.1 µM and 0.95 µM and 0.37 µM and the “TI50 (therapeutic index, IC50/EC50)” value (HIV-1) was > 14 and > 6 and > 35.
For CC1(OC(=O)c2cc(NC(=S)c3ccccc3)ccc2Cl)CCCC1 [Compound 2], the IC50 ([1]; Homo sapiens, CCRF-CEM) was 29.4 µM, the IC50 [1] was 28.8 µM and 31 µM and 32 µM and the EC50 (HIV-1; [2]) was 0.216 µM and 0.232 µM and 0.398 µM and 0.598 µM. The “TI50 (therapeutic index, IC50/EC50)” value (HIV-1) was 137 and 124 and 78 and 54.
CC(OC(=O)c1cc(NC(=S)c2ccccc2)ccc1Cl)C1CC1 (stereo not drawn) [Compound 13] was tested, and the IC50 ([1]; Homo sapiens, CCRF-CEM) was greater than 38 µM, the EC50 (HIV-1; [2]) was 2.1 µM and 2.2 µM and 0.79 µM and 0.72 µM and the “TI50 (therapeutic index, IC50/EC50)” value (HIV-1) was > 18 and > 17 and > 48 and > 52.
In the case of CC1CCC(OC(=O)c2cc(NC(=O)c3ccccc3)ccc2Cl)C1 (stereo not drawn) [Compound 7], the IC50 ([1]; Homo sapiens, CCRF-CEM) is reported as 19 µM, the IC50 [1] is reported as 11 µM and 17 µM and 14 µM and the EC50 (HIV-1; [2]) is reported as 5.8 µM and 3.6 µM and 6.1 µM. For the same molecule, the EC50 (HIV-1; [3]) was 5.7 µM and the “TI50 (therapeutic index, IC50/EC50)” value (HIV-1) was 3 and 2 and 5.
With Cc1occc1C(=S)Nc1ccc(Cl)c(C(=O)OC(C)C2CC2)c1 (stereo not drawn) [Compound 16] the IC50 ([1]; Homo sapiens, CCRF-CEM) was greater than 20 µM and the “TI50 (therapeutic index, IC50/EC50)” value (HIV-1) was > 440 and > 240 and > 1600.
